Data taken from patent publication US20080248953A1, “Use of Bacteriocins For Promoting Plant Growth and Disease Resistance” (MCGILL UNIVERSITY, priority 2005, published 2008).

How the values were obtained:
Format in all cases: in vivo, Glycine max
[1] = test system: catalase (CAT); assay: Catalase activity staining after PAGE; details: soybean leaves
Experimental: (§1) Treatments of chitin hexamer and thuricin 17 were applied when the seedling reached the first trifoliate stage (˜2 weeks old). Chitin hexamer and thuricin 17 treatments were applied through cut stems, as described by Orozco-Cardenas and Ryan (1999). The plants were excised at the base of the stem with a sharp scalpel and promptly placed in 2 mL Eppendorff™ tubes containing 0.5 mL of 100 μmol L^−1 chitin hexamer [(GlcNAc)6], 0.5 mL of […] thuricin 17, and chitin hexamer+thuricin 17 mixed (1:1) solution in phosphate buffer (15 mM sodium phosphate, pH 6.5). The control plants were treated with phosphate buffer solution alone. Once all the solution was taken up by the plants (4-6 h), they were immediately transferred to glass test tubes containing 20 mL distilled water. The plants were kept under constant white light (85 μmol·m^−2·s^−1). Leaves were collected at 12, 24, 36, 48, 60 and 72 h after elicitor treatment, weighed, placed in plastic bags and stored immediately at −80° C.
For the catalase activity (CAT) staining after 12.5% PAGE, the gel was incubated with 3.2 mM H2O2 for 20 min, and a treatment with a solution containing 1% FeCl3 and 1% K3Fe(CN)6 for 10 min, as described by Racchi et al (2001).

[2] = test system: phenylalanine ammonia lyase (PAL); assay: PAL activity in soybean leaves after treatment
Experimental: (§2) Soybean (Glycine max L. Merr. cv. OAC Bayfield) seeds were surface sterilized in 10% bleach, rinsed several times with distilled water and then germinated and grown in Vermiculite™ (Holiday, Montreal) in a growth chamber under a 16 h/8 h (day/night) regime (natural light supplemented with high pressure sodium lamps to reach the appropriate daylight), at 25±1° C., until they reached vegetative cotyledon (VC) stage (Fehr and Caviness, 1977).
as §1, with “Leaves were collected at 12, 24, 36, 48, 60 and 72 h after elicitor treatment, weighed, placed in plastic bags and stored immediately at −80° C.” left out
(§3) Leaf samples (300 mg fresh weight) were extracted in 4 mL of buffer (50 mM Tris pH 8.5, 14.4 mmol L^−1 2-mercaptoethanol, 1% w/v insoluble polyvinyl-polypyrrorolidone) and centrifuged at 6,000 g for 10 min at 4° C. The total protein concentration in soluble enzyme extracts was determined using the Bradford (1976) assay.
(§4) The method of Beaudoin-Eagan and Thorpe (1985) was used to estimate phenylalanine ammonia lyase (PAL) and tyrosine ammonia lyase (TAL) activities. […] The amounts of trans-cinnamic and p-coumaric acids formed were determined by measuring absorbance at 290 and 330 nm, respectively, against an identical mixture in which D-phenylalanine was substituted for L-phenylalanine and D-tyrosine for L-tyrosine. […]

[3] = test system: peroxidase (POD); assay: POD activity in soybean leaves; details: 72 h after treatment
Experimental: as §2
(§5) Treatments of chitin hexamer and thuricin 17 were applied when the seedling reached the first trifoliate stage (˜2 weeks old). Chitin hexamer and thuricin 17 treatments were applied through cut stems, as described by Orozco-Cardenas and Ryan (1999). The plants were excised at the base of the stem with a sharp scalpel and promptly placed in 2 mL Eppendorff™ tubes containing 0.5 mL of 100 μmol L^−1 chitin hexamer [(GlcNAc)6], 0.5 mL of […] thuricin 17, and chitin hexamer+thuricin 17 mixed (1:1) solution in phosphate buffer (15 mM sodium phosphate, pH 6.5). […]
The activity of peroxidase (POD) was assessed using the method of Chance and Maehly (1955). […] The reaction was started with addition of 20 μL of 40 mM H2O2 and the change in the absorbance at 470 nm was recorded for 1 min. The activity of peroxidase was calculated using an extinction coefficient for the tetraguaiacol of 26.6 mM^−1 cm^−1 at 470 nm. […]

[4] = test system: superoxide dismutase (SOD); assay: SOD activity in soybean leaves
Experimental: as §2
as §5, with “6.5). The control plants were treated with phosphate buffer solution alone.” for “6.5).”
The activity of superoxide dismutase (SOD) was determined by measuring its ability to inhibit the photoreduction of nitroblue tetrazolium (NBT) following the method of Giannopolitis and Ries (1977). […] Absorbance was recorded at 560 nm. […]

[5] = test system: total phenolic compounds; assay: Total phenolics in soybean leaves (Folin-Ciocalteu)
Experimental: as §2
as §5, with “6.5). The control plants were treated with phosphate buffer solution alone.” for “6.5).”
Total phenolic content was determined by the Folin-Ciocalteu method (Singleton and Rossi, 1965). […] After 3 min, 0.475 mL of 1 mol L^−1 Na2CO3 was added and after 1 h absorbance was measured. […] The total phenolic content was expressed as gallic acid equivalents (GAE) in mg g^−1 fresh weight (FW).

[6] = test system: tyrosine ammonia lyase (TAL); assay: TAL activity in soybean leaves after treatment
Experimental: as §2
as §1, with “Leaves were collected at 12, 24, 36, 48, 60 and 72 h after elicitor treatment, weighed, placed in plastic bags and stored immediately at −80° C.” left out
as §3, §4

Question: Which “induction of CAT activity” value [1] does the source give for `CC(=O)N[C@H]1[C@H](O[C@H]2[C@H](O)[C@@H](NC(C)=O)[C@H](O[C@H]3[C@H](O)[C@@H](NC(C)=O)C(O)O[C@@H]3CO)O[C@@H]2CO)O[C@H](CO)[C@@H](O[C@@H]2O[C@H](CO)[C@@H](O[C@@H]3O[C@H](CO)[C@@H](O[C@@H]4O[C@H](CO)[C@@H](O)[C@H](O)[C@H]4NC(C)=O)[C@H](O)[C@H]3NC(C)=O)[C@H](O)[C@H]2NC(C)=O)[C@@H]1O` (stereo partly drawn) [chitin hexamer, chitin hexamer [(GlcNAc)6]] here?
Answer: elicited increases

Question: What about the “PAL activity time course” value ([2]; 12 to 72 h after treatment) of the same compound?
Answer: increased continuously

Question: What about the “PAL activity increase compared with control” value ([2]; 60 h after treatment) of the same compound?
Answer: 8.4%

Question: What about the “PAL activity greater than the control” value ([2]; 72 h after treatment) of the same compound?
Answer: 18.1%

Question: What about the “POD activity increase compared with control” value [3] of the same compound?
Answer: 40.3%

Question: And the “induction of SOD activity” value [4]?
Answer: not induced

Question: What about the “SOD activity increase compared with control” value ([4]; 48 h after treatment) of the same compound?
Answer: 24.9%

Question: What about the “total phenolics increase compared with the control” value ([5]; 36 h after treatment) of the same compound?
Answer: 15.3%

Question: And the “total phenolics increase compared with the control” value ([5]; 72 h after treatment)?
Answer: 1.4%

Question: And the “TAL activity time course” value ([6]; 12 to 72 h after treatment)?
Answer: increased continuously

Question: What about the “TAL activity increase compared with the control” value ([6]; 48 h after treatment) of the same compound?
Answer: 18.8%

Question: And the “TAL activity increase compared with the control” value ([6]; 72 h after treatment)?
Answer: 23.8%
